# Results published in patent US8017644B2, “2-arylindole derivatives as nPGES-1 inhibitors” (Aziende Chimiche Riunite Angelini Francesco A.C.R.A.F. …, priority 2006, dated 2011).
# Key:
# [1] = tested on: production of PGE2 in A549 cells (mPGES-1); test: Inhibition of PGE2 production in IL-1β-stimulated A549 cells (EIA); format: cell-based; conditions: Homo sapiens; for IC50: IL-1β-stimulated, read-out: pIC50 PGE2 (converted); for inhibition at 10 µM: compound at 10 μm
# Text: (§1) The test used makes it possible to evaluate the inhibitory capacity of the test compounds on the production of PGE2 and the selectivity relative to the production of PGF2α. The human pulmonary adenocarcinoma cell line A549 was used, which is particularly sensitive to stimulation with proinflammatory cytokines, for instance IL-1β, and, in response to this stimulation, is particularly active in the production and release of two prostanoids: PGE2 and PGF2α (Thoren S. Jakobsson P-J, 2000).
# (§2) The cells were stimulated with IL-1β (10 ng/ml) and simultaneously treated with the test compound for 22 hours in a suitable culture medium (DMEM—Dulbecco's Modified Eagles Medium) enriched with 5% fetal calf serum and L-glutamine (4 mM final) in an incubator at 37° C. and with a CO2 concentration of 5%.
# (§3) At the end of the incubation, the amount of PGE2 and PGF2α, produced and released into the supernatant were assayed using an EIA kit (produced and sold by Cayman Chemicals, Ann Arbor, Mich., USA).
# (§4) The comparative compound used was indomethacin at a concentration of 10 nM (Sigma-Aldrich), which is a non-steroidal anti-inflammatory drug that inhibits in equal measure both PGE2 and PGF2α.
# (§5) For illustrative purposes, Table 3 collates the pIC50 values of a number of compounds of the invention, where pIC50 represents the negative logarithm of the IC50, which, in turn, represents the concentration of compound that inhibits the production of PGE2 or PGF2α by 50% relative to cells that are stimulated but not treated with the same compound.
# [2] = tested on: production of PGF2α in A549 cells; test: Inhibition of PGF2α production in IL-1β-stimulated A549 cells (EIA), selectivity; format: cell-based; conditions: Homo sapiens; for inhibition at 10 µM: compound at 10 μm; for IC50: IL-1β-stimulated, read-out: pIC50 PGF2α (converted)
# Text: as §1, §2, §3, §4, §5
# [3] = tested on: production of PGE2 in U-937 cells (cPGES); test: Inhibition of basal PGE2 production in U-937 cells (selectivity between isoforms of PGES); format: cell-based; conditions: Homo sapiens, basal conditions; for inhibition at 10 µM: compound at 10 μM
# Text: The test used makes it possible to evaluate the capacity of the compounds of the invention to inhibit the production of PGE2 in a human lymphoma cell line U-937 that preferentially expresses an enzymatic isoform (cPGES), which is responsible for the production of PGE2 under basal conditions, in the absence of pro-inflammatory stimuli. This enzymatic form is different from the one predominantly expressed in the A549 cells (mPGES-1) after a pro-inflammatory stimulus.
# The absence of inhibitory activity on PGE2 in this cell model ensures the selectivity of the compound compared with the enzymatic form responsible for the production of PGE2 in the presence of inflammatory stimuli.
# The reference compound used was indomethacin at a concentration of 10 nM.
# [4] = tested on: acetic acid-induced stretching in mice; test: Acetic acid-induced stretching in mice (inflammatory pain); format: in vivo; conditions: female CD-1 mice; for No. of stretches: 20 minutes after acetic acid, vehicle 52; for % inhibition (stretches): vs vehicle (MTC)
# Experimental: The test compound was evaluated in the model of acetic acid-induced stretching in mice (Stock J. L. et al., J Clin Inv 2001, 107: 325-331). This test makes it possible to evaluate the antinociceptive activity of the compounds of the invention in a model of inflammatory pain.
# Female CD-1 mice weighing 25-30 g were used for the test. The animals were treated intraperitoneally with the test compound (0.1-10 mg/kg) suspended in methylcellulose (MTC). The control animals were treated with the vehicle alone (MTC) via the same route.
# 30 minutes after the treatment, the animals received an intraperitoneal injection of acetic acid (0.7 v/v in physiological solution, 16 μl/g of body weight) in order to induce inflammatory pain and to check the effects of the test compound on the nociceptive response.
# Immediately after the administration of acetic acid and for the following 20 minutes, the number of stretches, which represents the parameter for evaluation of the nociceptive response, was measured.
# [5] = indomethacin at 10 nM, IL-1β 10 ng/ml, 22 hours
SMILES,IC50 [1] [nM],"inhibition at 10 µM ([1]; IL-1β 10 ng/ml, 22 hours) [%]","inhibition at 10 µM ([2]; IL-1β 10 ng/ml, 22 hours) [%]",inhibition at 10 µM [3] [%],other results
CCn1c(-c2ccccc2)cc2cc(NC(=O)c3ccccc3Cl)ccc21 [Compound 2],2000,76,< 20,< 20,No. of stretches ([4]; 0.1 mg/kg intraperitoneally): 38; % inhibition (stretches) ([4]; 0.1 mg/kg intraperitoneally): 27%; No. of stretches ([4]; 1 mg/kg intraperitoneally): 36; % inhibition (stretches) ([4]; 1 mg/kg intraperitoneally): 31%; No. of stretches ([4]; 10 mg/kg intraperitoneally): 25; % inhibition (stretches) ([4]; 10 mg/kg intraperitoneally): 52%
CCn1c(-c2ccccc2)cc2cc(NC(=O)c3cc([N+](=O)[O-])ccc3Cl)ccc21 [Compound 12],–,75,< 20,–,–
CCn1c(-c2ccccc2)cc2cc(NC(=O)c3cc(Cl)ccc3Cl)ccc21 [Compound 13],794,100,36,30,–
CCn1c(-c2ccc(OC)cc2)cc2cc(NC(=O)c3ccccc3Cl)ccc21 [Compound 30],–,75,< 20,–,–
CCn1c(-c2ccc(OCc3ccccc3)cc2)cc2cc(NC(=O)c3ccccc3Cl)ccc21 [Compound 22],–,79,< 20,–,–
"COc1ccc2c(c1)c(CC(=O)O)c(C)n2C(=O)c1ccc(Cl)cc1 [Indomethacin, indomethacin, reference compound]",5.01,–,–,–,"inhibition at 0.01 µM [1, 5]: 100%; IC50 [2]: 2.51 nM; inhibition at 0.01 µM [2, 5]: 100%; inhibition at 0.01 µM ([3]; indomethacin at 10 nM): 78%"
CCn1c(-c2cccc(Cl)c2C)cc2cc(NC(=O)c3ccccc3Cl)ccc21 [Compound 28],–,65,< 20,–,–
CCn1c(-c2ccccc2)cc2cc(NC(=O)c3ccccc3[N+](=O)[O-])ccc21 [Compound 16],–,74,< 20,–,–
CCn1c(-c2ccc(F)cc2)cc2cc(NC(=O)c3ccccc3Cl)ccc21 [Compound 6],1580,82,< 20,< 20,–
CCn1c(-c2ccccc2F)cc2cc(NC(=O)c3ccccc3Cl)ccc21 [Compound 4],–,72,< 20,–,–
CCn1c(-c2ccccc2)cc2cc(NC(=O)c3ccccc3C(F)(F)F)ccc21 [Compound 9],1260,100,< 20,< 20,IC50 [2]: 50100 nM
CCn1c(-c2cccc3ccccc23)cc2cc(NC(=O)c3ccccc3Cl)ccc21 [Compound 24],–,79,< 20,–,–
CC(C)n1c(-c2ccccc2)cc2cc(NC(=O)c3ccccc3Cl)ccc21 [Compound 3],–,91,34,–,–
CCn1c(-c2ccc(C)c(C)c2)cc2cc(NC(=O)c3ccccc3Cl)ccc21 [Compound 29],–,91,< 20,–,–
CCOc1ccc(-c2cc3cc(NC(=O)c4ccccc4Cl)ccc3n2CC)cc1 [Compound 21],–,66,< 20,–,–
Cn1c(-c2ccccc2)cc2cc(NC(=O)c3ccccc3Cl)ccc21 [Compound 1],–,63,< 20,–,–
CCn1c(-c2ccc(C)cc2)cc2cc(NC(=O)c3ccccc3Cl)ccc21 [Compound 20],3160,75,< 20,< 20,IC50 [2]: > 100000 nM
CCn1c(-c2ccccc2)cc2cc(NC(=O)c3c(Cl)cccc3Cl)ccc21 [Compound 10],2000,76,< 20,22,IC50 [2]: > 100000 nM
CCn1c(-c2ccccc2C)cc2cc(NC(=O)c3ccccc3Cl)ccc21 [Compound 18],2510,66,< 20,< 20,–
CCn1c(-c2ccc(Cl)c(C)c2)cc2cc(NC(=O)c3ccccc3Cl)ccc21 [Compound 25],–,89,< 20,–,–
CCn1c(-c2cccc(F)c2)cc2cc(NC(=O)c3ccccc3Cl)ccc21 [Compound 5],–,91,36,–,–
CCn1c(-c2cccc(C)c2)cc2cc(NC(=O)c3ccccc3Cl)ccc21 [Compound 19],1000,87,43,< 20,IC50 [2]: 100000 nM
CCn1c(-c2ccccc2)c(C)c2cc(NC(=O)c3ccccc3Cl)ccc21 [Compound 7],–,90,39,–,–
